Test results reported in US12275719B2, “Small molecule inhibitors of galectin-3” (BRISTOL-MYERS SQUIBB COMPANY, priority 2019, dated 2025).

What follows are compounds tested against His-tagged recombinant human Gal-3 (hGal-3) (Homo sapiens, UniProt P17931) (assay: Gal-3 HTRF assay (hGal-3 / B-ASF binding inhibition)). Details: Examples 26 to 29 and 66 to 68; HTRF, 15 nM hGal-3, 15 nM B-ASF.
Procedure: ASSAY BUFFER Composition: 25 mM HEPES, 100 mM NaCl, 0.005% Tween 20, 0.05% BSA prepared in sterile water (all reagents from Sigma).
Positive Control: 100% DMSO (1 μL)+His-tagged hGal-3 (20 μL)+β-ASF (20 μL)+Anti-His Terbium Antibody (5 μL)+Strep d2 Antibody (5 μL).
Negative Control: 100% DMSO (1 μL)+His-tagged hGal-3 (20 μL)+Anti His Terbium Antibody (5 μL)+Strep d2 Aantibody (5 μL).
PROTOCOL: The Gal-3 assays were performed in 384 white Opti plates in three replicates at room temperature with gentle shaking at 250-300 rpm From the original stocks, […] working stock concentrations of His-tagged recombinant human Gal-3 (hGal-3) and that of B-ASF were prepared. From the working stock, 20 μL of hGal-3 (15 nM) and 20 μL B-ASF (15 nM) were added to the plates. In Negative Control, only hGal-3 was added. A concentration range of 50× working stocks were prepared for the compounds in 100% DMSO. Aliquots of 1 μL of the compounds were added to the wells and pre-incubated with 20 μL hGal-3 per well for 30 minutes Then 20 μL B-ASF were added and incubated for another 1 hour. To detect the signal, 5 μL (final conc. of 1.0 nM) terbium labelled Anti-His antibody was added and incubated for 30 min followed by adding 5 μL (final conc. of 20 nM) Streptavidin d2 and incubation for another 1 hour. The assay signal was detected using HTRF screen protocol (Excitation wavelength=340 nm, emission wavelength=615 nm/665 nm) on Envision 2104 Multilabel Reader. Data analysed using Toolset and Curve Master. Results are reported in the experimental section (IC50 in μM).

His-tagged recombinant human Gal-3 (hGal-3), sequence (P17931 whole entry): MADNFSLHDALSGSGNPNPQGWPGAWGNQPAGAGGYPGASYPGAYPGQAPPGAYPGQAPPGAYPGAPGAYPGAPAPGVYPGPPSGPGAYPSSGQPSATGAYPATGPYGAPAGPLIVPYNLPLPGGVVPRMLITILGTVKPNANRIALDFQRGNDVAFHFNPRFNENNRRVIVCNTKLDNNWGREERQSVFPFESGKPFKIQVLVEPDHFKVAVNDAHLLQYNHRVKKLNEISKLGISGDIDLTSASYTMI

IC50 [nM] | Structure (SMILES)
76 | OC[C@H]1O[C@@H](c2n[nH]c(=S)n2-c2cc(Cl)ccc2C(F)(F)F)[C@H](O)[C@@H](n2cc(-c3ccc(Br)c(F)c3F)nn2)[C@H]1O (single isomer, unassigned) [Example 27]
6.9 | OC[C@H]1O[C@@H](c2n[nH]c(=S)n2-c2cc(Cl)ccc2C(F)(F)F)[C@H](O)[C@@H](n2cc(-c3ccc(Br)c(F)c3F)nn2)[C@H]1O (single isomer, unassigned) [Example 28]
11 | OC[C@H]1O[C@@H](c2nncn2-c2cc(Cl)ccc2C(F)(F)F)[C@H](OCC(F)F)[C@@H](n2cc(-c3ccc(Br)c(F)c3F)nn2)[C@H]1O [Example 29, (2R,3R,4S,5R,6S)-4-(4-(4-bromo-2,3-difluorophenyl)-1H-1,2,3-triazol-1-yl)-6-(4-(5-chloro-2-(trifluoromethyl)phenyl)-4H-1,2,4-triazol-3-yl)-5-(2,2-difluoroethoxy)-2-(hydroxymethyl)tetrahydro-2H-pyran-3-ol]

Structure (SMILES) | IC50 [nM]
OC[C@H]1O[C@@H](c2nncn2-c2cc(Cl)ccc2C(F)(F)F)[C@H](O)[C@@H](n2cc(-c3ccc(Br)c(F)c3F)nn2)[C@H]1O [Example 26, (2S,3R,4R,5R,6R)-4-(4-(4-bromo-2,3-difluorophenyl)-1H-1,2,3-triazol-1-yl)-2-(4-(5-chloro-2-(trifluoromethyl)phenyl)-4H-1,2,4-triazol-3-yl)-6-(hydroxymethyl)tetrahydro-2H-pyran-3,5-diol] | 10

Same assay, conditions: table of Examples 5 to 25

IC50 [nM] | Structure (SMILES)
62 | Cc1nc([C@@H]2O[C@H](CO)[C@H](O)[C@H](n3cc(-c4ccc5ccccc5c4F)nn3)[C@H]2O)n(-c2cc(Cl)ccc2C(F)(F)F)n1 [Example 6]
6 | Cc1nc([C@@H]2O[C@H](CO)[C@H](O)[C@H](n3cc(-c4ccc(Cl)c(Cl)c4F)nn3)[C@H]2O)n(-c2cc(Cl)ccc2C(F)(F)F)n1 [Example 7]
12 | Cc1nc([C@@H]2O[C@H](CO)[C@H](O)[C@H](n3cc(-c4ccc(Br)c(F)c4F)nn3)[C@H]2O)n(-c2cc(Cl)ncc2C(F)(F)F)n1 [Example 9]
11 | Cc1nc([C@@H]2O[C@H](CO)[C@H](O)[C@H](n3cc(-c4ccc(Br)c(F)c4F)nn3)[C@H]2O)n(-c2cc(Cl)ccc2OC(F)(F)F)n1 [Example 10]
14 | Cc1nc([C@@H]2O[C@H](CO)[C@H](O)[C@H](n3cc(-c4ccc(Cl)c(F)c4Cl)nn3)[C@H]2O)n(-c2cc(Cl)ccc2C(F)(F)F)n1 [Example 11]
56 | Cc1nc([C@@H]2O[C@H](CO)[C@H](O)[C@H](n3cc(-c4ccc(Br)cc4F)nn3)[C@H]2O)n(-c2cc(Cl)ccc2C(F)(F)F)n1 [Example 12]
19 | Cc1nc([C@@H]2O[C@H](CO)[C@H](O)[C@H](n3cc(-c4ccc(C#N)c(F)c4F)nn3)[C@H]2O)n(-c2cc(Cl)ccc2C(F)(F)F)n1 [Example 13]
137 | COc1c(Cl)ccc(-c2cn([C@H]3[C@@H](O)[C@@H](CO)O[C@@H](c4nc(C)nn4-c4cc(Cl)ccc4C(F)(F)F)[C@@H]3O)nn2)c1F [Example 14]
96 | Cc1nc([C@@H]2O[C@H](CO)[C@H](O)[C@H](n3cc(-c4ccc(Br)c(Cl)c4F)nn3)[C@H]2O)n(-c2cc(Cl)ccc2C(F)(F)F)n1 [Example 15]
74 | Cc1nc([C@@H]2O[C@H](CO)[C@H](O)[C@H](n3cc(-c4ccc(Br)c(F)c4C)nn3)[C@H]2O)n(-c2cc(Cl)ccc2C(F)(F)F)n1 [Example 16]
18 | Cc1nc([C@@H]2O[C@H](CO)[C@H](O)[C@H](n3cc(-c4ccc(Cl)c(C)c4F)nn3)[C@H]2O)n(-c2cc(Cl)ccc2C(F)(F)F)n1 [Example 17]
1330 | COc1cc(-c2cn([C@H]3[C@@H](O)[C@@H](CO)O[C@@H](c4nc(C)nn4-c4cc(Cl)ccc4C(F)(F)F)[C@@H]3O)nn2)cc2ccccc12 [Example 18]
23 | COc1cc(-c2cn([C@H]3[C@@H](O)[C@@H](CO)O[C@@H](c4nc(C)nn4-c4cc(Cl)ccc4C(F)(F)F)[C@@H]3O)nn2)cc(F)c1Br [Example 19]
9 | Cc1nc([C@@H]2O[C@H](CO)[C@H](O)[C@H](n3cc(-c4ccc(Cl)c(F)c4F)nn3)[C@H]2O)n(-c2ccc3ncsc3c2)n1 [Example 20]
10 | CO[C@@H]1[C@@H](n2cc(-c3ccc(Cl)c(F)c3F)nn2)[C@@H](O)[C@@H](CO)O[C@H]1c1nc(C)nn1-c1ccc2ncsc2c1 [Example 21]
55 | Cc1nc([C@@H]2O[C@H](CO)[C@H](O)[C@H](n3cc(-c4ccc(Cl)c(F)c4F)nn3)[C@H]2O)n(-c2cc(Cl)cnc2C(F)(F)F)n1 [Example 22]
20 | Cc1nc([C@@H]2O[C@H](CO)[C@H](O)[C@H](n3cc(-c4ccc(Br)c(F)c4F)nn3)[C@H]2O)n(-c2cc(Cl)ccc2C2CC2)n1 [Example 23]

Same assay, conditions: table of Examples 30 to 65

IC50 [nM] | Structure (SMILES)
22 | CO[C@@H]1[C@@H](n2cc(-c3ccc(Br)c(F)c3)nn2)[C@@H](O)[C@@H](CO)O[C@H]1c1ncnn1-c1cc(Cl)ccc1C(F)(F)F [Example 30]
24 | CO[C@@H]1[C@@H](n2cc(-c3cc(F)c(Br)c(F)c3)nn2)[C@@H](O)[C@@H](CO)O[C@H]1c1ncnn1-c1cc(Cl)ccc1C(F)(F)F [Example 31]
20 | OC[C@H]1O[C@@H](c2nncn2-c2cc(Cl)ccc2C(F)(F)F)[C@H](O)[C@@H](n2cc(-c3cc(F)c(Cl)c(Cl)c3)nn2)[C@H]1O [Example 34]
9.3 | CO[C@@H]1[C@@H](n2cc(-c3ccc(Br)c(F)c3F)nn2)[C@@H](O)[C@@H](CO)O[C@H]1c1nncn1-c1cc(Cl)ccc1C(F)(F)F [Example 35]

Same assay, conditions: text of Examples 1 to 4; HTRF, 15 nM hGal-3, 15 nM B-ASF

IC50 [nM] | Structure (SMILES)
7 | Cc1nc([C@@H]2O[C@H](CO)[C@H](O)[C@H](n3cc(-c4ccc(Br)c(F)c4F)nn3)[C@H]2O)n(-c2ccc3ncsc3c2)n1 [Example 1, (2S,3R,4R,5R,6R)-2-(1-(Benzo[d]thiazol-6-yl)-3-methyl-1H-1,2,4-triazol-5-yl)-4-(4-(4-bromo-2,3-difluorophenyl)-1H-1,2,3-triazol-1-yl)-6-(hydroxymethyl)tetrahydro-2H-pyran-3,5-diol]
13 | CO[C@@H]1[C@@H](n2cc(-c3ccc(Br)c(F)c3F)nn2)[C@@H](O)[C@@H](CO)O[C@H]1c1nc(C)nn1-c1ccc2ncsc2c1 [Example 2, (2R,3R,4S,5R,6S)-6-(1-(Benzo[d]thiazol-6-yl)-3-methyl-1H-1,2,4-triazol-5-yl)-4-(4-(4-bromo-2,3-difluorophenyl)-1H-1,2,3-triazol-1-yl)-2-(hydroxymethyl)-5-methoxytetrahydro-2H-pyran-3-ol]
14 | COc1cc(-c2cn([C@H]3[C@@H](O)[C@@H](CO)O[C@@H](c4nc(C)nn4-c4cc(Cl)ccc4C(F)(F)F)[C@@H]3O)nn2)cc(F)c1Cl [Example 3, (2S,3R,4R,5R,6R)-2-(1-(5-Chloro-2-(trifluoromethyl)phenyl)-3-methyl-1H-1,2,4-triazol-5-yl)-4-(4-(4-chloro-3-fluoro-5-methoxyphenyl)-1H-1,2,3-triazol-1-yl)-6-(hydroxymethyl)tetrahydro-2H-pyran-3,5-diol]
23 | CNC(=O)CO[C@@H]1[C@@H](n2cc(-c3cc(F)c(Cl)c(F)c3)nn2)[C@@H](O)[C@@H](CO)O[C@H]1c1nc(C)nn1-c1cc(Cl)ccc1C(F)(F)F [Example 4, 2-(((2S,3R,4S,5R,6R)-2-(1-(5-chloro-2-(trifluoromethyl)phenyl)-3-methyl-1H-1,2,4-triazol-5-yl)-4-(4-(4-chloro-3,5-difluorophenyl)-1H-1,2,3-triazol-1-yl)-5-hydroxy-6-(hydroxymethyl)tetrahydro-2H-pyran-3-yl)oxy)-N-methylacetamide]
